From PubChem BioAssay (NCI)
Values joined by “and” are separate entries in the source; they are usually repeats but may differ in a detail not shown here. Equal values may be shown once.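 In this assay, cells in 96-well plates receive the compound at five concentrations for 48 hours. Endpoints are linearly interpolated between the surrounding concentrations. Abbreviation: GI50, concentration required for 50% inhibition of growth. TGI denotes the concentration required for complete inhibition of growth.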

Legend:
Assay in all cases: inhibition of tumour cell growth, NCI panel, 48 h
LOX IMVI melanoma = system: LOX IMVI melanoma
A498 renal = system: A498 renal
SF-539 CNS = system: SF-539 CNS
NCI-H460 lung = system: NCI-H460 lung
OVCAR-8 ovarian = system: OVCAR-8 ovarian
DU-145 prostate = system: DU-145 prostate
SF-295 CNS = system: SF-295 CNS
UACC-62 melanoma = system: UACC-62 melanoma
M14 melanoma = system: M14 melanoma
CAKI-1 renal = system: CAKI-1 renal
UO-31 renal = system: UO-31 renal
HS 578T breast = system: HS 578T breast
U251 CNS = system: U251 CNS
PC-3 prostate = system: PC-3 prostate
SK-MEL-28 melanoma = system: SK-MEL-28 melanoma
KM12 colon = system: KM12 colon
OVCAR-5 ovarian = system: OVCAR-5 ovarian
SR leukemia = system: SR leukemia
HCT-116 colon = system: HCT-116 colon
RPMI-8226 leukemia = system: RPMI-8226 leukemia
SN12C renal = system: SN12C renal
SNB-19 CNS = system: SNB-19 CNS
NCI/ADR-RES ovarian = system: NCI/ADR-RES ovarian
NCI-H23 lung = system: NCI-H23 lung
OVCAR-3 ovarian = system: OVCAR-3 ovarian
HCT-15 colon = system: HCT-15 colon
T-47D breast = system: T-47D breast
SK-OV-3 ovarian = system: SK-OV-3 ovarian
IGROV1 ovarian = system: IGROV1 ovarian
HL-60(TB) leukemia = system: HL-60(TB) leukemia
MCF7 breast = system: MCF7 breast
ACHN renal = system: ACHN renal
A549 NSCLC = system: A549 NSCLC
SF-268 CNS = system: SF-268 CNS
TK-10 renal = system: TK-10 renal
OVCAR-4 ovarian = system: OVCAR-4 ovarian
786-0 renal = system: 786-0 renal
UACC-257 melanoma = system: UACC-257 melanoma
NCI-H522 lung = system: NCI-H522 lung
K-562 leukemia = system: K-562 leukemia
HOP-62 NSCLC = system: HOP-62 NSCLC
MDA-MB-231 breast = system: MDA-MB-231 breast
RXF 393 renal = system: RXF 393 renal
COLO 205 colon = system: COLO 205 colon
HT29 colon = system: HT29 colon
MDA-MB-435 = system: MDA-MB-435
SNB-75 CNS = system: SNB-75 CNS
CCRF-CEM leukemia = system: CCRF-CEM leukemia

CN1C(=O)C(c2c[nH]c3ccccc23)=C(c2c(-c3c[nH]c4ccccc34)[nH]c3ccccc23)C1=O
GI50 (LOX IMVI melanoma): 4.67 µM | TGI (LOX IMVI melanoma): 17 µM | GI50 (A498 renal): 1.89 µM | TGI (A498 renal): 8.12 µM | GI50 (SF-539 CNS): 1.81 µM | TGI (SF-539 CNS): 3.67 µM | GI50 (NCI-H460 lung): 3.31 µM | TGI (NCI-H460 lung): 15.8 µM | GI50 (OVCAR-8 ovarian): 3.2 µM | TGI (OVCAR-8 ovarian): 11 µM | GI50 (DU-145 prostate): 3 µM | TGI (DU-145 prostate): 12.2 µM | GI50 (SF-295 CNS): 1.93 µM | TGI (SF-295 CNS): 4.27 µM | GI50 (UACC-62 melanoma): 2.91 µM | TGI (UACC-62 melanoma): 5.54 µM | GI50 (M14 melanoma): 1.76 µM | TGI (M14 melanoma): 4.79 µM | GI50 (CAKI-1 renal): 1.48 µM | TGI (CAKI-1 renal): 4.63 µM | GI50 (UO-31 renal): 15.2 µM | TGI (UO-31 renal): > 100 µM | GI50 (HS 578T breast): 3 µM | TGI (HS 578T breast): 13.6 µM | GI50 (U251 CNS): 3 µM | TGI (U251 CNS): 9.61 µM | GI50 (PC-3 prostate): 3.11 µM | TGI (PC-3 prostate): 17.3 µM | GI50 (SK-MEL-28 melanoma): 10.4 µM | TGI (SK-MEL-28 melanoma): 31.4 µM | GI50 (KM12 colon): 2.13 µM | TGI (KM12 colon): 7.61 µM | GI50 (OVCAR-5 ovarian): 2.85 µM | TGI (OVCAR-5 ovarian): 11.3 µM | GI50 (SR leukemia): 5.19 µM | TGI (SR leukemia): 9.68 µM | GI50 (HCT-116 colon): 3.68 µM | TGI (HCT-116 colon): 11.2 µM | GI50 (RPMI-8226 leukemia): 3.54 µM | TGI (RPMI-8226 leukemia): 17.5 µM | GI50 (SN12C renal): 2.64 µM | GI50 (SNB-19 CNS): 3.95 µM | TGI (SNB-19 CNS): 18.8 µM | GI50 (NCI/ADR-RES ovarian): 14.7 µM | TGI (NCI/ADR-RES ovarian): 42.8 µM | GI50 (NCI-H23 lung): 1.7 µM | TGI (NCI-H23 lung): 4.72 µM | GI50 (OVCAR-3 ovarian): 0.92 µM | TGI (OVCAR-3 ovarian): 2.99 µM | GI50 (HCT-15 colon): 3.24 µM | TGI (HCT-15 colon): 12.3 µM | GI50 (T-47D breast): 4.72 µM | TGI (T-47D breast): 66.8 µM | GI50 (SK-OV-3 ovarian): 3.14 µM | TGI (SK-OV-3 ovarian): 13 µM | GI50 (IGROV1 ovarian): 9.53 µM | TGI (IGROV1 ovarian): > 100 µM | GI50 (HL-60(TB) leukemia): 2.41 µM | TGI (HL-60(TB) leukemia): 8.21 µM | GI50 (MCF7 breast): 2.27 µM | TGI (MCF7 breast): 6.26 µM | GI50 (ACHN renal): 3.4 µM | TGI (ACHN renal): 13.9 µM | GI50 (A549 NSCLC): 3.83 µM | TGI (A549 NSCLC): 13.9 µM | GI50 (SF-268 CNS): 4.07 µM | TGI (SF-268 CNS): 19.5 µM | GI50 (TK-10 renal): 1.66 µM | TGI (TK-10 renal): 4.85 µM | GI50 (OVCAR-4 ovarian): 15.5 µM | TGI (OVCAR-4 ovarian): > 100 µM | GI50 (786-0 renal): 3.44 µM | TGI (786-0 renal): 14.1 µM | GI50 (UACC-257 melanoma): 3.59 µM | TGI (UACC-257 melanoma): 13.2 µM | GI50 (NCI-H522 lung): 12.3 µM | TGI (NCI-H522 lung): > 100 µM | GI50 (K-562 leukemia): 3.07 µM | TGI (K-562 leukemia): > 100 µM | GI50 (HOP-62 NSCLC): 2.1 µM | TGI (HOP-62 NSCLC): 11.9 µM | GI50 (MDA-MB-231 breast): 4.09 µM | TGI (MDA-MB-231 breast): 26.9 µM | GI50 (RXF 393 renal): 1.64 µM | TGI (RXF 393 renal): 6.07 µM | GI50 (COLO 205 colon): 2.8 µM | TGI (COLO 205 colon): 7.89 µM | GI50 (HT29 colon): 2.73 µM | TGI (HT29 colon): 8.36 µM | GI50 (MDA-MB-435): 1.71 µM | TGI (MDA-MB-435): 4.11 µM | GI50 (SNB-75 CNS): 1.74 µM | TGI (SNB-75 CNS): 18 µM | GI50 (CCRF-CEM leukemia): 3.19 µM | TGI (CCRF-CEM leukemia): 12.4 µM

CS(=O)(=O)CC(Cc1ccccc1)C(=O)O (stereo not given)
GI50 (SR leukemia): 10.6 µg/mL | GI50 (TK-10 renal): 92.1 µg/mL

COc1ccc(-c2cc(-c3ccccc3)c(C#N)c(=O)n2C2OC(COC(C)=O)C(OC(C)=O)C(OC(C)=O)C2OC(C)=O)cc1 (stereo not given)
TGI (UO-31 renal): > 100 µM | GI50 (RPMI-8226 leukemia): 47.3 µM and 11.5 µM | TGI (RPMI-8226 leukemia): > 100 µM
